Laboratory results reported in patent US7687071B1, “Nanoparticulate core shell systems and the use thereof in pharmaceutical and cosmetic preparation” (BASF Aktiengesellschaft, priority 1998, dated 2010).

Assay: Wide-angle X-ray scattering
Type: physicochemical
Settings: FIG. 1
Text: The scattering plots for active ingredient (top) and dry powder from 1b) (bottom) are depicted in FIG. 1. The ritonavir starting material is crystalline, as proven by the X-ray diagram which is characterized by a number of sharp interferences. […] This also applies to the ancillary substances lactose and ascorbyl palmitate which are otherwise crystalline.

## CC(C)c1nc(CN(C)C(=O)N[C@H](C(=O)N[C@@H](Cc2ccccc2)C[C@H](O)[C@H](Cc2ccccc2)NC(=O)OCc2cncs2)C(C)C)cs1 [ritonavir]
  solid state by X-ray scattering plot: crystalline
